Test results reported in US9999611B2, “SIRT 1 activator including syringaresinol” (AMOREPACIFIC CORPORATION, priority 2011, dated 2018).

How the values were obtained:
[1] = tested on: gingival fibroblasts; experiment: Cellular activity promoting effect in gingival fibroblasts (MTT assay); format: cell-based, human; conditions: cigarette smoke condensate 100 μg/mL, syringaresinol 50 or 100 μg/mL, 2 days, FIG. 3
Procedure: Gingival fibroblasts subcultured for 5-6 times in substantially the same manner as in Test Example 1 were seeded onto a 24-well plate, with 1×10^4 cells per well. After culturing for 1 day, cigarette smoke condensate was added with a concentration of 100 μg/mL in substantially the same manner as in Test Example 1 and the syringaresinol obtained in Example was added after dissolving in DMSO to a concentration of 50 or 100 μg/mL. A control group was treated with DMSO corresponding to 1/1000 of the volume of the culture medium. Also, a group which was treated with neither the cigarette smoke condensate nor the test substance was prepared. After culturing for 2 days and adding 300 μL of 3-(4,5-dimethylthiazol-2-yl)-2,5-diphenyltetrazolium bromide (MTT; Sigma, USA) dissolved in physiological saline per each well, the cells were cultured for 4 hours. After removing the culture medium and dissolving formazan crystals by adding 200 μL of dimethyl sulfoxide (DMSO; Junsei, Japan), absorbance was measured at 540 nm using an ELISA reader (Spectra MAX 250, Molecular Devices Co., USA). Each experiment was repeated 3 times.

[2] = tested on: aged retinal cells (ARPE-19); experiment: Mitochondrial biosynthesis promoting effect in aged retinal cells (mitochondrial DNA relative to nuclear DNA, real-time PCR); format: cell-based, human; conditions: vs DMSO, FIG. 15
Procedure: The aging of retinal cells was induced while treating with 50 or 100 μM syringaresinol or with DMSO as a negative control, in substantially the same manner as in Test Example 7. The cells treated with each sample were washed 2 times with cold PBS and genomic DNA (gDNA) was extracted therefrom using the FastPure DNA kit (Tokyo, Japan). For evaluation of mitochondrial biosynthesis, the quantity of the mitochondrial DNA marker cytochrome oxidase subunit II and the nuclear DNA marker cyclophilin A was quantified through real-time PCR using the extracted gDNA and the number of mitochondria was measured by calculating the quantity of mitochondrial DNA relative to the nuclear DNA. PCR reaction and analysis were carried out using the Rotor-Gene 3000 system (Corbett Research, Sydney, Australia).

[3] = tested on: human PBMCs; experiment: Reactive oxygen species production inhibiting effect in LPS-treated human PBMCs (H2-DCFDA); format: cell-based; conditions: human PBMCs pretreated with 20, 50 or 100 μM, then 10 ng/mL LPS; compared to cells treated only with LPS; FIG. 18
Procedure: After pretreating human PBMCs with 20, 50 or 100 μM syringaresinol in substantially the same manner as in Test Example 10, followed by washing with PBS, inflammatory response was induced by treating with 10 ng/mL lipopolysaccharide (LPS). After treating the cells with H2-DCFDA (Invitrogen), which is a fluorescent substance capable of detecting reactive oxygen species, the amount of fluorescent substance was measured using a multiplate reader (Infinite M200; Tecan, Mannedorf, Switzerland).

[4] = tested on: ADD1/SREBP1c, ACC, FAS; experiment: Expression of fatty acid synthesis-related genes (qRT-PCR); format: cell-based, human; conditions: 50 μM, vs DMSO control
Procedure: Human adipocytes, hepatocytes and myocytes were treated with 50 μM syringaresinol and washed with PBS in substantially the same manner as in Test Example 3. RNA was extracted from the cells and cDNA was synthesized therefrom. The change in expression pattern of fatty acid synthesis-related genes such as ADD1/SREBP1c, ACC, FAS, etc. and fatty acid oxidation-related genes such as ACO, CPT1, mCAD, etc. was measured by qRT-PCR.

[5] = tested on: human PBMCs; experiment: Human PBMC migration and deposition onto 3T3-L1 adipocytes (TNF-induced); format: cell-based; conditions: human PBMCs, 20, 50 or 100 μM, 10 ng/mL TNF, differentiated 3T3-L1 adipocytes, 48 hours; FIG. 20
Procedure: After treating human PBMCs with 20, 50 or 100 μM syringaresinol or DMSO in substantially the same manner as in Test Example 11, inflammatory response was induced by treating with 10 ng/mL TNF. After treating differentiated 3T3-L1 adipocytes (Zen-Bio) with the PBMCs, it was investigated whether the PBMCs migrate onto the adipocytes and deposit. 48 hours later, after removing the PBMCs remaining without migrating, the cells were detached from a culture dish using trypsin/EDTA and then counted using a cell counter.

**Q.** What does the source list for `COc1cc(C2OCC3C(c4cc(OC)c(O)c(OC)c4)OCC23)cc(OC)c1O` (centres unmarked) [syringaresinol]?
**A.** cellular activity (MTT, absorbance at 540 nm) [1]: recovered cellular activity, which had been decreased due to smoking, to a level substantially comparable to the normal level; increase in mitochondrial biosynthesis (mitochondrial DNA relative to nuclear DNA) ([2]; 50 μM): about 40%; increase in mitochondrial biosynthesis (mitochondrial DNA relative to nuclear DNA) ([2]; 100 μM): ~60%; decreased reactive oxygen species production [3]: about 60%; expression of fatty acid synthesis-inducing genes ([4]; human adipocytes, FIG. 5): suppressed the expression of fatty acid synthesis-inducing genes; expression of fatty acid synthesis-inducing genes ([4]; human hepatocytes, FIG. 6): suppressed the expression of fatty acid synthesis-inducing genes; expression of fatty acid synthesis-inducing genes ([4]; human myocytes, FIG. 7): suppressed the expression of fatty acid synthesis-inducing genes; inhibition of migration and deposition of PBMCs onto adipocytes [5]: about 50%
